From patent EP0126813A1, “Process for preparing imidazole compounds” (Newport Pharmaceuticals International, Inc., priority 1983, dated 1984)

Experiments:
Lymphocyte [1] = assay: Con A induced lymphocyte proliferation (mitogen induced lymphocyte proliferation); format: cell-based; settings: for X̄ cpm: control 35,059 cpm
Description: In Table 1 the effect of NPT 15459 on con A Induced Proliferation is described. The procedure is described in Simon U.S. patent 4,221,909, column 24, line 12 to column 25, line 10.

Lymphocyte [2] = assay: LPS induced lymphocyte proliferation (mitogen induced lymphocyte proliferation); format: cell-based; settings: for X̄ cpm: control 7044 cpm
Description: In Table 1 the effect of NPT 15459 on LPS Induced Proliferation is described.

[3] = system: SRBC Induced Antibody Formation; assay: SRBC induced antibody formation; format: in vivo; settings: for X̄ PFC/10^6 Cells: saline control 53
Description: In Table 2 the SRBC Induced Antibody Formation procedure employed was that shown in Simon EPO application 0036077 page 46.

[4] = Solubility (summary of chemical properties); format: physicochemical
[5] = Lymphocyte, 5.0 µg/ml, read-out: Percent Change from Control
[6] = Lymphocyte, 10.0 µg/ml, read-out: Percent Change from Control

For `CCCCCC[C@H]([C@H](C)O)n1cnc(C(N)=O)c1N` (relative stereo) [NPT 15459, erythro-3-(2-hydroxy-3-nonyl)-4-amino-imidazole-5-carboxamide], the “X̄ cpm” value (Lymphocyte [1]; 5.0 µg/ml) was 20,095 cpm, the “X̄ cpm” value (Lymphocyte [1]; 10.0 µg/ml) was 12,736 cpm and the “X̄ cpm” value (Lymphocyte [1]; .020 µg/ml) was 35,747 cpm. The “X̄ cpm” value (Lymphocyte [1]; .500 µg/ml) was 30,920 cpm, the inhibition at 5 µg/mL (Lymphocyte [1]; [5]) was 43% and the inhibition at 10 µg/mL (Lymphocyte [1]; [6]) was 65%. For the same compound, the inhibition at 0.02 µg/mL (Lymphocyte [1]; Lymphocyte, .020 µg/ml, read-out: Percent Change from Control) was -2%, the inhibition at 0.5 µg/mL (Lymphocyte [1]; Lymphocyte, .500 µg/ml, read-out: Percent Change from Control) was 12% and the “X̄ cpm” value (Lymphocyte [2]; 5.0 µg/ml) was 4128 cpm. The “X̄ cpm” value (Lymphocyte [2]; 10.0 µg/ml) was 2449 cpm, the “X̄ cpm” value (Lymphocyte [2]; .02 µg/ml) was 6184 cpm and the “X̄ cpm” value (Lymphocyte [2]; .5 µg/ml) was 6676 cpm. The inhibition at 5 µg/mL (Lymphocyte [2]; [5]) was 42%, the inhibition at 10 µg/mL (Lymphocyte [2]; [6]) was 66% and the inhibition at 0.02 µg/mL (Lymphocyte [2]; Lymphocyte, .02 µg/ml, read-out: Percent Change from Control) was 12%. The inhibition at 0.5 µg/mL (Lymphocyte [2]; Lymphocyte, .5 µg/ml, read-out: Percent Change from Control) was 6%, the “Percent Change from Control” value ([3]; 5.0 mg/kg) was “+24%” and the “X̄ PFC/10^6 Cells” value ([3]; 5.0 mg/kg) was 66 PFC/10^6 Cells. The “Percent Change from Control” value ([3]; .05 mg/kg) was “+196%”, the “X̄ PFC/10^6 Cells” value ([3]; .05 mg/kg) was 157 PFC/10^6 Cells and the “Percent Change from Control” value ([3]; .5 mg/kg) was “+126%”. The “X̄ PFC/10^6 Cells” value ([3]; .5 mg/kg) was 120 PFC/10^6 Cells, the Solubility ([4]; HCl (Aq), acetic acid, methanol, ethanol) was “very soluble” and the Solubility ([4]; benzene, water) was “insoluble”. The Solubility ([4]; isopropanol) was “soluble”.
